Patent US20190053492A1, “SUBSTITUTED PYRIDINE COMPOUNDS AS PESTICIDES” (Bayer CropScience Aktiengesellschaft, priority 2016, published 2019)
Read-outs that look alike come from different tables or passages of the source.

How the values were obtained:
[1] = log P by HPLC on reversed-phase column (C 18), EEC Directive 79/831 Annex V.A8; type: physicochemical; conditions: 55° C.; for LOGP_HCOOH: log P (HCOOH); for chromatographic logP: reversed-phase HPLC column (C 18)
Procedure: Temperature: 55° C. […] Called log P (HCOOH) in the table. […] Called log P (neutral) in the table.

Musca domestica = Musca domestica test; type: in vivo; conditions: application rate 100 ppm, after 2 days, adult houseflies
Procedure: Musca domestica Test Solvent: dimethyl sulphoxide To produce a suitable active ingredient formulation, 10 mg of active ingredient are mixed with 0.5 ml of dimethyl sulphoxide, and the concentrate is diluted with water to the desired concentration. Vessels containing a sponge treated with sugar solution and the active ingredient formulation of the desired concentration are populated with 10 adult houseflies (Musca domestica). After 2 days, the kill in % is determined. 100% means that all of the flies have been killed; 0% means that none of the flies have been killed.

Phaedon cochleariae = Phaedon cochleariae spray test; type: in vivo; conditions: after 7 days, Chinese cabbage leaf discs
Procedure, shortened: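 Larval kill read at day 7 as percent, where 100% means every larva dead and 0% none; larvae were placed on dried Brassica pekinensis leaf discs previously sprayed with the formulation (acetone/dimethylformamide solvent, alkylaryl polyglycol ether emulsifier, water).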

Ctenocephalides felis = Ctenocephalides felis oral test; type: in vivo; conditions: application rate 100 ppm in citrated cattle blood, after 2 days, adult cat fleas
Procedure, shortened: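 Kill (%) was recorded at 2 days. Compound, dissolved in DMSO and diluted into citrated cattle blood, was offered to roughly 20 unfed adult C. felis through parafilm.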

Lucilia cuprina = Lucilia cuprina test; type: in vivo; conditions: application rate 100 ppm, after 2 days, L1 larvae
Procedure, shortened: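 Percent mortality read at day 2, where 100% means all larvae dead. Roughly 20 L1 larvae were exposed on minced horsemeat treated with a DMSO/water formulation at the desired concentration.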

Spodoptera frugiperda = Spodoptera frugiperda spray test; type: in vivo; conditions: after 7 days, maize leaf discs
Procedure, shortened: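 Efficacy in % was scored at 7 days against armyworm caterpillars placed on dried, compound-sprayed Zea mays leaf discs. Compound was dissolved in acetone/dimethylformamide and diluted in water with 1000 ppm alkylaryl polyglycol ether. 100% means all caterpillars were killed.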

[2] = acidic range at pH 2.7, 0.1% aqueous formic acid and acetonitrile, HPLC on reversed-phase column (C 18)
[3] = log P, neutral range, HPLC on reversed-phase column (C 18)
[4] = acidic range pH 2.7, 0.1% aqueous formic acid and acetonitrile, reversed-phase column (C 18)

Structure (SMILES)	LOGP_HCOOH [1, 2]	LOGP_NEUTRAL [1, 3]	efficacy (kill in %) (Musca domestica)	efficacy (beetle larvae killed) (Phaedon cochleariae; application rate 100 g/ha)	efficacy (beetle larvae killed) (Phaedon cochleariae; application rate 500 g/ha)	efficacy (kill in %) (Ctenocephalides felis)	efficacy (kill in %) (Lucilia cuprina)	efficacy (caterpillars killed) (Spodoptera frugiperda; application rate 100 g/ha)	efficacy (caterpillars killed) (Spodoptera frugiperda; application rate 500 g/ha)	LOGP_HCOOH [1, 4]	LOGP_NEUTRAL ([1]; log P (neutral), HPLC reversed-phase column (C 18))	chromatographic logP ([1]; pH 2.7, LC-MS acidic range, pH 2.7, 0.1% formic acid/acetonitrile, read-out: log P (acidic) / log P (HCOOH))	chromatographic logP ([1]; pH 7.8, LC-MS neutral range, pH 7.8, ammonium hydrogencarbonate/acetonitrile, read-out: log P (neutral))	pest or weed control at 100 g/ha (Phaedon cochleariae; Phaedon cochleariae, foliar, 168 h, application rate 100 g/ha, read-out: efficacy (beetle larvae killed))	pest or weed control at 500 g/ha (Phaedon cochleariae; Phaedon cochleariae, foliar, 168 h, application rate 500 g/ha, read-out: efficacy (beetle larvae killed))	pest or weed control at 100 ppm (Ctenocephalides felis; Ctenocephalides felis, po, 48 h, read-out: efficacy (kill in %))	pest or weed control at 100 g/ha (Spodoptera frugiperda; Spodoptera frugiperda, foliar, 168 h, application rate 100 g/ha, read-out: efficacy (caterpillars killed))	pest or weed control at 500 g/ha (Spodoptera frugiperda; Spodoptera frugiperda, foliar, 168 h, application rate 500 g/ha, read-out: efficacy (caterpillars killed))
N#Cc1ccc(CNC(=O)c2cc(-c3ccc4c(c3)OC(F)(F)O4)cc(NC(=O)C3CC3)n2)cc1 [Example I-154]	3.76	3.61	100%	100%	100%	100%	100%	83%	100%									
N#Cc1ccc(CNC(=O)c2cc(-c3ccc(C(F)(F)F)cc3)cc(NC(=O)C3CC3)n2)c(F)c1 [Example I-077]		3.79	80%	83%	100%	100%	100%	100%	100%	3.90								
N#Cc1ccc(C2(NC(=O)c3cc(-c4ccc(OC(F)(F)F)cc4)cc(NC(=O)C4CC4)n3)CC2)cc1 [Example I-159]	4.08	3.93	80%			100%	90%	100%	100%									
CC(C)C(=O)Nc1cc(-c2ccc(OC(F)(F)F)cc2)cc(C(=O)NCc2cc(F)c(C#N)c(F)c2)n1 [Example I-073]		4.21	80%			100%	100%	83%	100%	4.35								
N#Cc1ccc(CNC(=O)c2cc(-c3ccc(N(C(F)(F)F)C(F)(F)F)cc3)cc(NC(=O)C3CC3)n2)cc1 [Example I-225]	4.40	4.34		100%	100%	100%	100%	100%	100%									
N#Cc1cc(F)c(CNC(=O)c2cc(-c3ccc(C(F)(F)C(F)(F)F)c(F)c3)cc(NC(=O)C3CC3)n2)cc1F [Example I-249]				100%	100%	100%	100%	100%	100%	4.51	4.51							
O=C(NCCC(F)(F)F)c1cc(-c2ccc(OC(F)(F)F)cc2)cc(NC(=O)C2CC2)n1 [Example I-176]		3.83		100%	100%	100%	100%	100%	100%									
N#Cc1ccc(CNC(=O)c2cc(-c3ccc(S(F)(F)(F)(F)F)cc3)cc(NC(=O)C3CC3)n2)cc1 [Example I-173]	3.98	4.31		100%	100%	100%	100%	100%	100%									
N#Cc1ccc(CNC(=O)c2cc(-c3ccc(Br)cc3)cc(NC(=O)C3CC3)n2)cc1 [Example I-053]		3.61			100%	95%	100%		100%	3.73								
CC(F)(F)c1ccc(-c2cc(NC(=O)C3CC3)nc(C(=O)NCc3ccc(C#N)cc3)c2)cc1 [Example I-192]	3.42	3.40		100%	100%	100%	90%	100%	100%									
N#Cc1ccc(CNC(=O)c2cc(-c3ccc(C(F)(F)C(F)(F)F)c(F)c3)cc(NC(=O)C3CC3)n2)cc1 [Example I-149, N-(4-Cyanobenzyl)-6-[(cyclopropylcarbonyl)amino]-4-[3-fluoro-4-(pentafluoroethyl)phenyl]pyridine-2-carboxamide]	4.25	4.14					100%					4.25	4.14	100%	100%	100%	100%	100%
CC(C)C(=O)Nc1cc(-c2ccc(OC(F)(F)F)cc2)cc(C(=O)NCc2ccc(C#N)cc2F)n1 [Example I-081]		4.09		83%	100%	100%	100%	100%	100%	4.22								
Cn1nccc1-c1ccc(CNC(=O)c2cc(-c3ccc(OC(F)(F)F)cc3)cc(NC(=O)C3CC3)n2)cc1 [Example I-107]		3.80	90%	100%	100%		100%		100%	3.86								
N#Cc1ccc(CNC(=O)c2cc(-c3ccc(S(=O)(=O)C(F)(F)F)cc3)cc(NC(=O)C3CC3)n2)cc1F [Example I-120]	3.74	3.65		100%	100%	100%	100%	100%	100%									
CC(C#N)NC(=O)c1cc(-c2ccc(C(F)(F)C(F)(F)F)c(F)c2)cc(NC(=O)C2CC2)n1 (stereo not drawn) [Example I-245]				100%	100%	100%	80%	100%	100%	3.94								
